Assay: Retention rate of the agriculturally active ingredient after xenon light irradiation (film on glass petri dish)
Type: physicochemical
Settings: xenon light (290 nm cutoff), 0.68 W/m^2 at 340 nm, 35° C., neat active ingredient air-dried on petri dish
Method: A method for the calculation of a retention rate of the agriculturally active ingredient defined above is more specifically as follows. First, 250 mg of the agriculturally active ingredient is dissolved in 50 mL of a solvent such as acetone, which can sufficiently dissolve the agriculturally active ingredient and also has high volatility, and 1 mL of the solution is added to a glass petri dish having a diameter of 6 cm using a one-mark pipette, spread entirely over the petri dish, and then air-dried at room temperature. The petri dish is covered with a lid made of quartz glass and then set in a weathering tester (manufactured by Q-Lab Corporation under the trade name of Q-SUN Xenon Accelerated Weathering Tester, Model Xe-3) equipped with a borosilicate filter (manufactured by Q-Lab Corporation under the trade name of Daylight-BB Optical Filter) attached thereto. After irradiation with xenon light under the conditions of an intensity at 340 nm of 0.68 W/m^2 and a temperature of 35° C. (35° C. as measured by an insulated black panel thermometer) for a predetermined time, the amount of the agriculturally active ingredient remaining on the petri dish is determined by a known determination method such as high-performance liquid chromatography. […]

CNC(=O)C(OC)c1ccccc1COc1cc(C)ccc1C (stereo not drawn) [compound A, 2-[(2,5-dimethylphenoxy)methyl]-α-methoxy-N-methyl-benzeneacetamide]
retention rate after irradiation with xenon light (8 hours): 93.1%
retention rate after irradiation with xenon light (56 hours): 50.3%
